The source of these data is PubChem BioAssay AID328 (DTP/NCI, 2004).

Several values for one entry are separate records, joined by “and”; a condition that tells them apart may be missing. Identical values can stand only once. Inconclusive results and toxic doses are left out.

This test concerns BDF1 mice, P388 leukemia ip, median survival T/C. The test is described as follows: NCI In Vivo Anticancer Drug Screen. Data for tumor model P388 Leukemia (intraperitoneal) in B6D2F1 (BDF1) mice. Particulars: endpoint: median survival time, higher = longer survival. A digest of the protocol:
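Compound-treated tumour-bearing mice were compared with vehicle-treated controls. Survival was recorded, and the value is the treated-group measurement divided by the control-group measurement (T/C).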

[1] abbreviates: dose: 100.0 mg/kg/injection, schedule: Q01DX001 (ip), vehicle: Klucel (hydroxypropylcellulose) (HPC).
Setting [2] is: dose: 6.25 mg/kg/injection, schedule: Q01DX009 (ip), vehicle: saline with Tween-80.
Setting [3] is: dose: 25.0 mg/kg/injection, schedule: Q04DX003 (ip), vehicle: saline with Tween-80.
Setting [4] is: dose: 50.0 mg/kg/injection, schedule: Q01DX009 (ip), vehicle: saline with Tween-80.
The mark [5] stands for this setting: dose: 50.0 mg/kg/injection, schedule: Q04DX003 (ip), vehicle: saline with Tween-80.
[6] abbreviates: dose: 100.0 mg/kg/injection, schedule: Q01DX009 (ip), vehicle: saline with Tween-80.
Where [7] appears, read: dose: 100.0 mg/kg/injection, schedule: Q04DX003 (ip), vehicle: saline with Tween-80.
Where [8] appears, read: dose: 200.0 mg/kg/injection, schedule: Q01DX009 (ip), vehicle: saline with Tween-80.
Where [9] appears, read: dose: 200.0 mg/kg/injection, schedule: Q04DX003 (ip), vehicle: saline with Tween-80.
Where [10] appears, read: dose: 400.0 mg/kg/injection, schedule: Q01DX009 (ip), vehicle: saline with Tween-80.
Setting [11] is: dose: 400.0 mg/kg/injection, schedule: Q04DX003 (ip), vehicle: saline with Tween-80.

On to `CC(=O)OC1(C)CC(C)C(O)C(C(O)CC2CC(=O)NC(=O)C2)C1` (centres undefined), for which the T/C runs as follows: (dose: 0.5 mg/kg/injection, schedule: Q01DX010 (ip), vehicle: water) 120 % of control; (dose: 2.0 mg/kg/injection, schedule: Q01DX010 (ip), vehicle: water) 150 % of control and 160 % of control; (dose: 3.0 mg/kg/injection, schedule: Q01DX010 (ip), vehicle: water) 190 % of control; (dose: 4.0 mg/kg/injection, schedule: Q01DX010 (ip), vehicle: water) 90 % of control and 110 % of control.

For `CN(C)c1ccc(/C=C\C(=O)c2ccccc2)cc1`, the T/C reads like this: (dose: 100.0 mg/kg/injection, schedule: Q01DX009 (ip), vehicle: Klucel (hydroxypropylcellulose) (HPC)) 100 % of control; (dose: 200.0 mg/kg/injection, schedule: Q01DX009 (ip), vehicle: Klucel (hydroxypropylcellulose) (HPC)) 110 % of control; (dose: 400.0 mg/kg/injection, schedule: Q01DX009 (ip), vehicle: Klucel (hydroxypropylcellulose) (HPC)) 120 % of control.

As for `O=[N+]([O-])c1ccc2c(c1)Cc1cc(Br)ccc1-2`, the T/C by setting is: (dose: 100.0 mg/kg/injection, schedule: Q04DX003 (ip), vehicle: Klucel (hydroxypropylcellulose) (HPC)) 100 % of control; (dose: 400.0 mg/kg/injection, schedule: Q04DX003 (ip), vehicle: Klucel (hydroxypropylcellulose) (HPC)) 100 % of control.

With `CCOC(=O)c1cnc2ccc3ccccc3n2c1=O`, the T/C (dose: 50.0 mg/kg/injection, schedule: Q04DX002 (ip), vehicle: saline with Tween-80) is 101 % of control; the T/C (dose: 100.0 mg/kg/injection, schedule: Q04DX002 (ip), vehicle: saline with Tween-80) was 101 % of control; the T/C (dose: 200.0 mg/kg/injection, schedule: Q04DX002 (ip), vehicle: saline with Tween-80) is 93 % of control.

As for `NC(=O)N/N=C1\CCCC(CCC(=O)O)C1` (centres undefined), the T/C is 96 % of control under setting [1]; 100 % of control (dose: 200.0 mg/kg/injection, schedule: Q01DX001 (ip), vehicle: Klucel (hydroxypropylcellulose) (HPC)); 100 % of control (dose: 400.0 mg/kg/injection, schedule: Q01DX001 (ip), vehicle: Klucel (hydroxypropylcellulose) (HPC)).

Consider `CN1CCN(C(=O)Cc2c[nH]c3ccccc23)CC1`, for which the T/C is, setting by setting: under setting [2], 105 % of control; (dose: 12.5 mg/kg/injection, schedule: Q04DX003 (ip), vehicle: saline with Tween-80) 111 % of control; under setting [3], 101 % of control; under setting [4], 95 % of control; under setting [5], 104 % of control; under setting [6], 89 % of control. The T/C under setting [7] is 113 % of control.

As for `Cc1nc2n(c1/C=N/NC(N)=S)CCS2`, the T/C by setting is: (dose: 25.0 mg/kg/injection, schedule: Q01DX001 (ip), vehicle: Klucel (hydroxypropylcellulose) (HPC)) 102 % of control; (dose: 50.0 mg/kg/injection, schedule: Q01DX001 (ip), vehicle: Klucel (hydroxypropylcellulose) (HPC)) 98 % of control; under setting [1], 98 % of control.

In the case of `COc1ccc(OC)c(Br)c1`, the T/C is, setting by setting: under setting [6], 110 % of control; under setting [7], 100 % of control; (dose: 178.0 mg/kg/injection, schedule: Q01DX009 (ip), vehicle: saline with Tween-80) 118 % of control; under setting [8], 120 % of control; under setting [9], 100 % of control; (dose: 266.0 mg/kg/injection, schedule: Q01DX009 (ip), vehicle: saline with Tween-80) 118 % of control. Besides, the T/C reads like this: under setting [10], 109 % of control; under setting [11], 113 % of control.

For `CCCCCCC(=O)CC(SCC)c1ccccc1Cl` (centres undefined), the T/C under setting [4] was 93 % of control, the T/C under setting [6] was 107 % of control and the T/C under setting [8] was 121 % of control.

Take `c1ccc(SCN2CCN(CSc3ccccc3)CC2)cc1`: the T/C is, setting by setting: (dose: 50.0 mg/kg/injection, schedule: Q01DX001 (ip), vehicle: saline) 95 % of control; (dose: 100.0 mg/kg/injection, schedule: Q01DX001 (ip), vehicle: saline) 109 % of control.

As for `CC1OC(OC2C(O)CC(OC3C(O)CC(OC4CCC5(C)C(CCC6C5CCC5(C)C(C7=CC(=O)OC7)CCC65O)C4)OC3C)OC2C)CC(O)C1O` (centres undefined), the T/C was 113 % of control (dose: 0.63 mg/kg/injection, schedule: Q01DX010 (ip), vehicle: saline); 100 % of control (dose: 1.25 mg/kg/injection, schedule: Q01DX010 (ip), vehicle: saline); 118 % of control (dose: 2.5 mg/kg/injection, schedule: Q01DX010 (ip), vehicle: saline); 100 % of control (dose: 5.0 mg/kg/injection, schedule: Q01DX010 (ip), vehicle: saline).

As for `CC(=O)N(C)c1ccc(/C=C2\C=Cc3ccccc32)cc1`, the T/C is 100 % of control under setting [6], 90 % of control under setting [7], 95 % of control under setting [8] and 100 % of control under setting [9].

Regarding `CCOC(=O)C1=C(C)NC(C)=C(C(=O)OCC)C1c1cc(OC)c(OC)c(OC)c1`, the T/C is, setting by setting: (dose: 25.0 mg/kg/injection, schedule: Q01DX009 (ip), vehicle: other) 100 % of control; (dose: 50.0 mg/kg/injection, schedule: Q01DX009 (ip), vehicle: other) 95 % of control; (dose: 100.0 mg/kg/injection, schedule: Q01DX009 (ip), vehicle: other) 96 % of control; (dose: 200.0 mg/kg/injection, schedule: Q01DX009 (ip), vehicle: other) 95 % of control; (dose: 400.0 mg/kg/injection, schedule: Q01DX009 (ip), vehicle: other) 87 % of control.

For `CCOC(=O)C(C(=O)OCC)=C(C)OCC`, the T/C was 106 % of control under setting [2]; 86 % of control (dose: 12.5 mg/kg/injection, schedule: Q01DX009 (ip), vehicle: saline with Tween-80); 97 % of control (dose: 25.0 mg/kg/injection, schedule: Q01DX009 (ip), vehicle: saline with Tween-80); 99 % of control under setting [3]; 97 % of control under setting [4]; 107 % of control under setting [5]. For the same molecule, the T/C under setting [6] was 106 % of control, the T/C under setting [7] was 90 % of control and the T/C under setting [9] is 107 % of control.

As for `ClC1CC[N-]CC1.ClC1CC[N-]CC1.[Cl][Pt+2]([Cl])([Cl])[Cl]`, the T/C runs as follows: (dose: 12.5 mg/kg/injection, schedule: Q01DX009 (ip), vehicle: Klucel (hydroxypropylcellulose) (HPC)) 182 % of control; (dose: 25.0 mg/kg/injection, schedule: Q01DX009 (ip), vehicle: Klucel (hydroxypropylcellulose) (HPC)) 221 % of control; (dose: 50.0 mg/kg/injection, schedule: Q01DX009 (ip), vehicle: Klucel (hydroxypropylcellulose) (HPC)) 115 % of control.

In the case of `CN1c2ccc3ccccc3c2Sc2ccc3ccccc3c21`, the T/C runs as follows: under setting [6], 113 % of control; under setting [7], 100 % of control; under setting [8], 104 % of control; under setting [9], 95 % of control; under setting [10], 104 % of control; under setting [11], 90 % of control.
